# According to US20160375057A1, “THERAPEUTIC COMPOSITIONS AND METHODS INVOLVING CELL-PERMEABLE IRON” (priority 2015, published 2016):
# Like-named read-outs stand apart in the source and are kept apart here.
# Experiments:
# [1] = system: MA148 ovarian cancer cells; test: Synergy of doxorubicin and FAC, CCK-8 viability, Compusyn CI/DRI (Example 5, FIG. 5, Tables 3-4); format: cell-based, Human
# Description: FIG. 5. […] (Chou et al., 2006, Pharmacol Rev 58:621-628).
# Subsequently, they were treated with different concentrations of Doxorubicin in the presence or absence of FAC 200 uM. […] Five different combinations of FAC and Doxorubicin were used in this study. […] Values below the dotted line indicate synergy.
# [2] = system: A2780 ovarian cancer cells; test: Synergy of carboplatin and FAC, CCK-8 IC50 isobologram (Example 3, FIG. 3); conditions: read-out: IC50 (50% cell viability); agent alone, 48-hour treatment, CCK-8, A2780
# Description: In these experiments, varying concentrations of the two reagents are added to tumor cells in an array format. Cytotoxicity was determined by CCK8 assay after 24 hours.
# A2780 ovarian cancer cells were seeded into 96-well plates. […] Cell viability was determined by CCK-8 kit after 48-hour treatment with the drugs. […] IC50 values are shown as individual data points.
# Burkitt's lymphoma cells = test: Lymphoma cell growth in vitro, FAC versus FC (FIG. 14); format: cell-based
# Description: FIG. 14. […]. Burkitt's lymphoma cells were treated with either ferric ammonium citrate (FAC) or ferric citrate (FC). […]
# [3] = system: Lewis Lung Carcinoma (LLC) MATRIGEL plugs, tumor blood vessels (CD31)
# Description: FIG. 11. […] Tumor cells were injected into groups of mice subcutaneously in […] plugs. […] Histograms show mean levels of blood vessel length and branch points.
# In another aspect, this disclosure describes methods of inhibiting angiogenesis in a subject. Generally, the methods involve co-administering cell-permeable iron and an anti-angiogenic chemotherapeutic agent. […] (FIG. 7).
# One million LLC cells (in PBS) were mixed with […] (Corning, Inc., Corning, N.Y.) in a 3:1 ratio and injected subcutaneously into the dorsal flanks (bilateral sites) of 6-8 week old female C57BL/6 wild-type mice. Experimental […] plugs contained 200 μM FAC. Four days later, mice were treated with either saline (negative control) or 20 mg/kg FAC (in PBS) on alternate days for two weeks. After two weeks, mice were sacrificed, tumor plugs removed and photographed, a part of the […] plugs was snap-frozen, and another part of the […] plugs was fixed in 10% neutral formalin. Frozen tumor plugs (n=5 for saline and n=7 for FAC) were sectioned (15 μm), fixed with acetone at −20° C. for 10 minutes, rehydrated, and blocked in 1% BSA. Slides were then stained with PE-conjugated anti-mouse CD31 (1:100) overnight at 4° C., washed three times with PBS, stained with FITC-conjugated anti-alpha-SMA (1:500) for one hour at room temperature and counterstained with DAPI. Two sections per tumor plug were stained. Random areas (5-20) were imaged at 10× magnification using a Nikon AZ 100M Fluorescence Macro scope and at 20× magnification using a Leica DM5500 B microscope. CD31 vessel length and branching points (nodes) were quantified by morphometric analyses of fluorescent digital images using Reindeer Games plug-in functions for Adobe Photoshop, as previously described (Wild et al., 2000, Microvac Res 59(3):368-376). CD31 positive vessels co-staining with alpha- SMA were quantified similarly to quantitate mature vessels. Data in FIG. 11 show representative images of tumor sections stained with rat anti-mouse CD31-phycoerythrin conjugate.
# [4] = system: Burkitt's B-lymphoma cells; conditions: 14 days, 2 cells/well-50 cells/well
# Description: FIG. 13. […] Burkitt's B-lymphoma cells were treated with FAC at different concentrations. Treated cells grown for 14 days at different cell density (2 cells/well-50 cells/well).
# HUVECs = conditions: FAC 200 μM for 24 hours, complete medium, eight hours recording
# Description: HUVECs were plated in 60 mm plates and allowed to grow and attach for 24 hours. Subsequently, one plate was treated with FAC 200 μM for 24 hours. Control and treated cells were trypsinized and 50,000 live cells were plated in 8 well (8W10E) electric cell substrate impedance sensing plate (ECIS, Applied BioPhysics, Inc., Troy, N.Y.). Cell attachment and spreading was confirmed by measuring electrical impedance. After reaching stable values of impedance in ohms, a clear wound of 250 micrometer was generated by applying elevated electrical pulse to the defined electrode. Wounded area is clear of cells and confirmed by a decrease in impedance. Cell movement into the wounded areas was recorded for eight hours at 15 minute intervals. Cell migration into the wounded area increases impedance and was continually recorded over a period of eight hours (FIG. 10). Error bars represent standard deviation (SD).
# [5] = system: MA148 ovarian cancer cells
# Description: CI, combination index. CI<1.0 indicates synergy. Compusyn program (ComboSyn, Inc., Paramus, N.J.) was used to calculate CI and generate isobologram.
# In these experiments, varying concentrations of the two reagents are added to tumor cells in an array format. Cytotoxicity was determined by CCK8 assay after 24 hours. […] An antagonistic effect (competition) would result in hyperbolic (bell-shaped) curve above the dotted line (additive effect).
# Cells were allowed to attach for 24 hours after which they were pretreated with FAC 200 μM for 24 hours. […] After 24 hours, CCK-8 (10 μl) was added to each well and one hour later, absorbance at 450 nm was measured. Viability was calculated as percentage of the cells grown in complete medium (FIG. 4). […] Isobologram was generated using Compusyn program (ComboSyn, Inc., Paramus, N.J.). Dotted line is the predicted additive effect between two compounds. Values below the dotted line indicate synergy.
# [6] = system: human umbilical vein endothelial cells (HUVEC); conditions: 100 ng/ml VEGF-A
# Description: Human umbilical vein endothelial cells (HUVECs; Neuromics, Edina, Minn.) and HUVECs immortalized with h-TERT (ATCC CRL-4053, ATCC, Manassas, Va.) were cultured in endothelial cell growth media EGM-2 (Lonza, Basel, Switzerland). Lewis Lung Carcinoma (LLC) cells (ATCC CRL-1642, ATCC, Manassas, Va.) were grown in RPMI 1640 medium supplemented with 10% FBS, 1% glutamine, 1% penicillin-streptomycin and 1% sodium pyruvate. Female C57BL/6 wild-type (WT) mice were used as recipients (bred at the University of Minnesota specific pathogen free environment animal facility). All animals were sex and aged matched (6-8 weeks). All experimental protocols were approved by the University of Minnesota Institutional Animal Care and Use Committee. VEGF-A165 was purchased from R & D Systems (Minneapolis, Minn.). GELTREX Low-growth factor basement membrane matrix (Thermo Fisher Scientific, Inc., Waltham Mass.) was used for in vitro tube formation assay.
# HUVEC were plated in 0.2% gelatin coated 96-well plates and allowed to attach for 24 hours. Subsequently they were starved in EBM-2 with 2% serum overnight. […] Cell viability was determined by CCK-8 assay (Dojindo Molecular Technologies, Inc., Rockville, Md.). VEGF-A induced effect was calculated by subtracting negative control values from all experimental groups. Proliferation was then calculated as percentage of the positive control.
# [7] = system: MDA-MB-231-luc triple negative breast cancer cell line; conditions: 100 μM FAC alone without radiation, five days
# Description: FIG. 12. […] Triple negative breast cancer cell line, MDA-MB-231-luc, was exposed to different doses of ionizing radiation (X-Ray) in the presence and absence of 100 μM FAC. Sets of cultures seeded at the same cell density were kept as a control for radiation-induced cell death.
# 500,000 highly metastatic human breast cancer cells (MDA-MB-231-luc, Caliper Life Sciences, PerkinElmer Inc., Hopkinton, Mass.) were seeded into six-well plates in RPMI-1640 medium (3.0 ml) supplemented with 10% fetal bovine serum and antibiotics. After four hours to allow cell attachment, sets of cultures were treated with 100 μM FAC. Equal volume of complete medium was added to control cultures. One of the plates was kept aside without any radiation. Other sets of cultures were exposed to ionizing radiation (X-ray) of varying doses. After radiation, cells were cultures for five days. Live cells were stained with Hoechest 33342 dye and photographed under UV light.
# [8] = 20 mg/kg FAC on alternate days for two weeks
molecule,measurement,setting,value
"COc1cccc2c1C(=O)c1c(O)c3c(c(O)c1C2=O)C[C@@](O)(C(=O)CO)C[C@@H]3O[C@H]1C[C@H](N)[C@H](O)[C@H](C)O1 [DOX, Doxorubicin, reference compound]",Dose DOX (DOX alone for this Fa),[1]; Fa 0.88386,47050.0
same,Dose DOX (DOX alone for this Fa),[1]; Fa 0.95196,178095.
"N.N.O=C([O-])C1(C(=O)[O-])CCC1.[Pt+2] [carboplatin, reference compound]",IC50,[2],150 µM
ferric ammonium citrate [FAC],inhibition of lymphoma cell growth,Burkitt's lymphoma cells,effective
same,potency relative to ferric citrate at inhibiting lymphoma cell growth,Burkitt's lymphoma cells,more potent than ferric citrate (FC)
same,total vessel length,[3]; [8],inhibited
same,vessel branches,[3]; [8],inhibited
same,CD31 positive vessel density,"[3]; systemic injection of FAC, compared to mice receiving saline",significantly reduced
same,colony formation (clonogenic growth),[4],completely inhibited
same,"endothelial cell migration (electrical impedance, real time)",HUVECs,inhibits
same,Dose FAC (FAC alone for this Fa),[5]; Fa 0.24288,121.297
same,Dose FAC (FAC alone for this Fa),[5]; Fa 0.24359,121.991
same,Dose FAC (FAC alone for this Fa),[5]; Fa 0.28253,164.074
same,Dose FAC (FAC alone for this Fa),[5]; Fa 0.29392,178.068
same,Dose FAC (FAC alone for this Fa),[5]; Fa 0.35541,269.444
same,Dose FAC (FAC alone for this Fa),[5]; Fa 0.36087,279.043
same,Dose FAC (FAC alone for this Fa),[5]; Fa 0.49929,645.092
same,Dose FAC (FAC alone for this Fa),[5]; Fa 0.61254,1272.12
same,Dose FAC (FAC alone for this Fa),[5]; Fa 0.66880,1824.65
same,Dose FAC (FAC alone for this Fa),[5]; Fa 0.87322,11126.4
same,inhibition of VEGF-A-induced cell proliferation,"[6]; 50 μM FAC, 48 hours",complete inhibition
same,inhibition of VEGF-A-induced endothelial cell proliferation,"[6]; 200 μM FAC, 24 hours",completely inhibited
same,IC50,[2],200 µM
same,cell viability,[7],significant decrease in cell viability
same,Dose FAC (FAC alone for this Fa),[1]; Fa 0.88386,2644.47
same,Dose FAC (FAC alone for this Fa),[1]; Fa 0.95196,6060.28
ferric citrate [FC],inhibition of lymphoma cell growth,Burkitt's lymphoma cells,effective
